Source: the NIST ThermoML archive (doi:10.1021/je400917j)
Numbers after ± are expanded uncertainties.

Test: xn = mol fraction of the nth substance listed
Settings: 101 kPa, Liquid; for mass density: Vibrating tube method

CCCCCC(C)O (configuration not stated) [2-heptanol] + CC(=O)N(C)C
Settings | mass density, 298.15 K [kg/m3] | mass density, 303.15 K [kg/m3] | mass density, 308.15 K [kg/m3] | mass density, 313.15 K [kg/m3] | viscosity, 298.15 K [mPa·s] | viscosity, 303.15 K [mPa·s] | viscosity, 308.15 K [mPa·s] | viscosity, 313.15 K [mPa·s]
x2 = 0 | 813.2 ± 0.2 | 809.5 ± 0.2 | 805.7 ± 0.2 | 801.5 ± 0.2 | 5.3 ± 0.15 | 4.48 ± 0.13 | 3.68 ± 0.11 | 2.96 ± 0.086
x2 = 0.0806 | 819 ± 0.2 | 814.8 ± 0.2 | 810.8 ± 0.2 | 806.5 ± 0.2 | 4.53 ± 0.13 | 3.75 ± 0.11 | 2.99 ± 0.087 | 2.51 ± 0.073
x2 = 0.1595 | 825 ± 0.2 | 820.7 ± 0.2 | 816.5 ± 0.2 | 812.1 ± 0.2 | 3.77 ± 0.11 | 3.17 ± 0.092 | 2.54 ± 0.074 | 2.13 ± 0.063
x2 = 0.2394 | 831.6 ± 0.2 | 827.1 ± 0.2 | 822.7 ± 0.2 | 818.1 ± 0.2 | 3.11 ± 0.09 | 2.6 ± 0.076 | 2.18 ± 0.064 | 1.82 ± 0.054
x2 = 0.3495 | 841.7 ± 0.2 | 837.1 ± 0.2 | 832.6 ± 0.2 | 827.7 ± 0.2 | 2.46 ± 0.072 | 2.08 ± 0.061 | 1.78 ± 0.053 | 1.48 ± 0.044
x2 = 0.4393 | 850.8 ± 0.2 | 846.2 ± 0.2 | 841.5 ± 0.2 | 836.6 ± 0.2 | 2.07 ± 0.061 | 1.775 ± 0.052 | 1.54 ± 0.046 | 1.28 ± 0.038
x2 = 0.559 | 864.7 ± 0.2 | 859.9 ± 0.2 | 855.1 ± 0.2 | 850.2 ± 0.2 | 1.65 ± 0.049 | 1.436 ± 0.043 | 1.26 ± 0.038 | 1.06 ± 0.032
x2 = 0.6494 | 876.4 ± 0.2 | 871.7 ± 0.2 | 866.8 ± 0.2 | 861.9 ± 0.2 | 1.41 ± 0.042 | 1.219 ± 0.037 | 1.08 ± 0.033 | 0.95 ± 0.029
x2 = 0.7393 | 889.4 ± 0.2 | 884.7 ± 0.2 | 879.9 ± 0.2 | 875.1 ± 0.2 | 1.2 ± 0.036 | 1.09 ± 0.033 | 0.98 ± 0.03 | 0.87 ± 0.027
x2 = 0.8494 | 907.5 ± 0.2 | 902.8 ± 0.2 | 898.1 ± 0.2 | 893.4 ± 0.2 | 1.06 ± 0.032 | 0.97 ± 0.03 | 0.88 ± 0.027 | 0.8 ± 0.025
x2 = 0.9393 | 924.2 ± 0.2 | 919.7 ± 0.2 | 915.3 ± 0.2 | 910.8 ± 0.2 | 0.98 ± 0.03 | 0.906 ± 0.028 | 0.82 ± 0.025 | 0.76 ± 0.024

CCCCC(C)O (configuration not stated) [2-hexanol] + CC(=O)N(C)C
Settings | mass density, 298.15 K [kg/m3] | mass density, 303.15 K [kg/m3] | mass density, 308.15 K [kg/m3] | mass density, 313.15 K [kg/m3] | viscosity, 298.15 K [mPa·s] | viscosity, 303.15 K [mPa·s] | viscosity, 308.15 K [mPa·s] | viscosity, 313.15 K [mPa·s]
x2 = 0 | 810.1 ± 0.2 | 806.1 ± 0.2 | 802.1 ± 0.2 | 798 ± 0.2 | 4.1 ± 0.15 | 3.41 ± 0.12 | 2.82 ± 0.1 | 2.22 ± 0.083
x2 = 0.0817 | 816.9 ± 0.2 | 812.8 ± 0.2 | 808.6 ± 0.2 | 804.3 ± 0.2 | 3.46 ± 0.13 | 2.89 ± 0.11 | 2.42 ± 0.09 | 1.8 ± 0.068
x2 = 0.1606 | 824 ± 0.2 | 819.7 ± 0.2 | 815.4 ± 0.2 | 810.9 ± 0.2 | 2.87 ± 0.11 | 2.41 ± 0.09 | 2.05 ± 0.077 | 1.52 ± 0.058
x2 = 0.2405 | 831.5 ± 0.2 | 827.1 ± 0.2 | 822.7 ± 0.2 | 818.1 ± 0.2 | 2.35 ± 0.088 | 2 ± 0.075 | 1.76 ± 0.067 | 1.33 ± 0.051
x2 = 0.3506 | 842.9 ± 0.2 | 838.3 ± 0.2 | 833.8 ± 0.2 | 829 ± 0.2 | 1.82 ± 0.069 | 1.58 ± 0.06 | 1.44 ± 0.055 | 1.15 ± 0.045
x2 = 0.4404 | 852.9 ± 0.2 | 848.2 ± 0.2 | 843.6 ± 0.2 | 838.8 ± 0.2 | 1.54 ± 0.059 | 1.35 ± 0.052 | 1.25 ± 0.049 | 1.04 ± 0.041
x2 = 0.5601 | 867.5 ± 0.2 | 862.8 ± 0.2 | 858.1 ± 0.2 | 853.3 ± 0.2 | 1.29 ± 0.05 | 1.16 ± 0.045 | 1.06 ± 0.042 | 0.92 ± 0.037
x2 = 0.6505 | 879.6 ± 0.2 | 874.8 ± 0.2 | 870.1 ± 0.2 | 865.4 ± 0.2 | 1.14 ± 0.045 | 1.03 ± 0.041 | 0.94 ± 0.037 | 0.85 ± 0.034
x2 = 0.7405 | 892.6 ± 0.2 | 887.8 ± 0.2 | 883.2 ± 0.2 | 878.4 ± 0.2 | 1.03 ± 0.041 | 0.95 ± 0.038 | 0.87 ± 0.035 | 0.8 ± 0.032
x2 = 0.8504 | 909.9 ± 0.2 | 905.2 ± 0.2 | 900.7 ± 0.2 | 896.2 ± 0.2 | 0.97 ± 0.038 | 0.9 ± 0.036 | 0.82 ± 0.033 | 0.77 ± 0.031
x2 = 0.9405 | 925.4 ± 0.2 | 920.8 ± 0.2 | 916.5 ± 0.2 | 912.2 ± 0.2 | 0.95 ± 0.038 | 0.882 ± 0.035 | 0.81 ± 0.033 | 0.756 ± 0.031

CC(=O)N(C)C [N,N-dimethylethanamide] + CC(C)O
Settings | mass density, 298.15 K [kg/m3] | mass density, 303.15 K [kg/m3] | mass density, 308.15 K [kg/m3] | mass density, 313.15 K [kg/m3] | viscosity, 298.15 K [mPa·s] | viscosity, 303.15 K [mPa·s] | viscosity, 308.15 K [mPa·s] | viscosity, 313.15 K [mPa·s]
x1 = 0.081 | 796.1 ± 0.2 | 791.8 ± 0.2 | 787.4 ± 0.2 | 782.8 ± 0.2 | 1.68 ± 0.05 | 1.53 ± 0.05 | 1.39 ± 0.04 | 1.22 ± 0.04
x1 = 0.16 | 810.3 ± 0.2 | 806 ± 0.2 | 801.6 ± 0.2 | 797 ± 0.2 | 1.47 ± 0.04 | 1.32 ± 0.04 | 1.23 ± 0.04 | 1.1 ± 0.03
x1 = 0.2399 | 824.2 ± 0.2 | 819.9 ± 0.2 | 815.4 ± 0.2 | 810.9 ± 0.2 | 1.33 ± 0.04 | 1.19 ± 0.04 | 1.11 ± 0.03 | 1 ± 0.03
x1 = 0.3499 | 842.7 ± 0.2 | 838.2 ± 0.2 | 833.8 ± 0.2 | 829.2 ± 0.2 | 1.21 ± 0.04 | 1.08 ± 0.03 | 1.01 ± 0.03 | 0.92 ± 0.03
x1 = 0.4399 | 857.1 ± 0.2 | 852.7 ± 0.2 | 848.2 ± 0.2 | 842.9 ± 0.2 | 1.13 ± 0.03 | 1.03 ± 0.03 | 0.96 ± 0.03 | 0.87 ± 0.03
x1 = 0.5598 | 875.6 ± 0.2 | 871.1 ± 0.2 | 866.7 ± 0.2 | 862.2 ± 0.2 | 1.06 ± 0.03 | 0.97 ± 0.03 | 0.91 ± 0.03 | 0.82 ± 0.03
x1 = 0.6496 | 888.9 ± 0.2 | 884.4 ± 0.2 | 880 ± 0.2 | 875.6 ± 0.2 | 1.02 ± 0.03 | 0.94 ± 0.03 | 0.88 ± 0.03 | 0.8 ± 0.03
x1 = 0.7394 | 901.7 ± 0.2 | 897.2 ± 0.2 | 892.8 ± 0.2 | 888.5 ± 0.2 | 0.99 ± 0.03 | 0.92 ± 0.03 | 0.86 ± 0.03 | 0.78 ± 0.02
x1 = 0.8495 | 916.8 ± 0.2 | 912.4 ± 0.2 | 908 ± 0.2 | 903.7 ± 0.2 | 0.97 ± 0.03 | 0.9 ± 0.03 | 0.84 ± 0.03 | 0.76 ± 0.02
x1 = 0.9399 | 928.8 ± 0.2 | 924.3 ± 0.2 | 920 ± 0.2 | 915.6 ± 0.2 | 0.95 ± 0.03 | 0.89 ± 0.03 | 0.823 ± 0.026 | 0.75 ± 0.02
x1 = 1 | 936.5 ± 0.2 | 932 ± 0.2 | 927.8 ± 0.2 | 923.5 ± 0.2 | 0.94 ± 0.03 | 0.87 ± 0.03 | 0.82 ± 0.03 | 0.75 ± 0.02

CC(=O)N(C)C [N,N-dimethylethanamide] + CCC(C)O
Settings | mass density, 298.15 K [kg/m3] | mass density, 303.15 K [kg/m3] | mass density, 308.15 K [kg/m3] | mass density, 313.15 K [kg/m3] | viscosity, 298.15 K [mPa·s] | viscosity, 303.15 K [mPa·s] | viscosity, 308.15 K [mPa·s] | viscosity, 313.15 K [mPa·s]
x1 = 0.0812 | 813.5 ± 0.2 | 808.9 ± 0.2 | 804.1 ± 0.2 | 799.4 ± 0.2 | 2.57 ± 0.08 | 2.19 ± 0.06 | 1.89 ± 0.06 | 1.62 ± 0.05
x1 = 0.1602 | 823.6 ± 0.2 | 818.7 ± 0.2 | 813.6 ± 0.2 | 808.6 ± 0.2 | 2.16 ± 0.06 | 1.88 ± 0.06 | 1.65 ± 0.05 | 1.44 ± 0.04
x1 = 0.2401 | 833.9 ± 0.2 | 828.7 ± 0.2 | 823.7 ± 0.2 | 818.1 ± 0.2 | 1.81 ± 0.05 | 1.61 ± 0.05 | 1.45 ± 0.04 | 1.27 ± 0.04
x1 = 0.3499 | 848.2 ± 0.2 | 842.6 ± 0.2 | 837.1 ± 0.2 | 831.6 ± 0.2 | 1.45 ± 0.04 | 1.35 ± 0.04 | 1.25 ± 0.04 | 1.12 ± 0.03
x1 = 0.4355 | 859.4 ± 0.2 | 853.8 ± 0.2 | 848 ± 0.2 | 842.5 ± 0.2 | 1.27 ± 0.04 | 1.21 ± 0.04 | 1.14 ± 0.03 | 1.03 ± 0.03
x1 = 0.56 | 876 ± 0.2 | 870.3 ± 0.2 | 864.7 ± 0.2 | 859 ± 0.2 | 1.14 ± 0.03 | 1.09 ± 0.03 | 1.02 ± 0.03 | 0.93 ± 0.03
x1 = 0.65 | 888.1 ± 0.2 | 882.5 ± 0.2 | 876.8 ± 0.2 | 871.4 ± 0.2 | 1.08 ± 0.03 | 1.03 ± 0.03 | 0.95 ± 0.03 | 0.88 ± 0.03
x1 = 0.7398 | 900.3 ± 0.2 | 894.9 ± 0.2 | 890.2 ± 0.2 | 884.2 ± 0.2 | 1.03 ± 0.03 | 0.98 ± 0.03 | 0.91 ± 0.03 | 0.84 ± 0.03
x1 = 0.8498 | 915.4 ± 0.2 | 910.3 ± 0.2 | 906.1 ± 0.2 | 900.3 ± 0.2 | 0.99 ± 0.03 | 0.93 ± 0.03 | 0.86 ± 0.03 | 0.8 ± 0.03
x1 = 0.9389 | 927.8 ± 0.2 | 923.1 ± 0.2 | 918.9 ± 0.2 | 914 ± 0.2 | 0.96 ± 0.03 | 0.91 ± 0.03 | 0.82 ± 0.03 | 0.77 ± 0.02
x1 = 1 | 936.5 ± 0.2 | 932 ± 0.2 | 927.8 ± 0.2 | 923.5 ± 0.2 | 0.94 ± 0.03 | 0.87 ± 0.03 | 0.8 ± 0.03 | 0.75 ± 0.02
